Laboratory results published in patent US20100022600A1, “METHODS AND COMPOSITIONS FOR TREATING CENTRAL NERVOUS SYSTEM TUMORS” (priority 2006, published 2010).

Key:
C6 glioma tumor cells = experiment: TUNEL assay for apoptosis in tumors, C6 rat glioma model; format: in vivo; conditions: 9 days of pio treatment
Experimental: Frozen brain tissue sections were examined for apoptosis using the terminal deoxynucleotidyl transferase-mediated dUTP transferase nick-end labeling (TUNEL assay). Apoptosis was evaluated using the Promega DeadEnd Fluorometric Tunel System (Promega, Madison, Wis., USA) according to the manufacturer's instructions. The percentage of TUNEL positive cells was assessed by counting the immunopositve cells in 1×10^3 tumor (DAPI stain) cells and statistically compared.

MMP-9 = MMP-9 expression in vivo (western blot, immunohistochemistry); set-up: species or system rat
Experimental: For western-blot analysis, tumor-containing hemispheres were homogenized in Tris-HCl [50 mM Tris-HCl pH8, 120 mM NaCl, 5 mM EDTA, 0.5% (v/v) NP-40, […] phenylmethylsulfonyl fluoride (PMSF)] and sonicated. Homogenates were collected by centrifugation (15 min 11000 g. 4° C.) and protein concentration in the supernatant was determined using the Bio-Rad Protein Assay (Biorad, Munich, Germany). Lysates (20-40 μg) were separated on a 7% (w/v) sodium dodecyl sulfate (SDS)-polyacrylamide gel under reducing conditions and transferred to a PVDF membrane (Millipore, Bedford, Mass., USA). Non-specific binding was blocked by incubation with 5% (w/v) skimmed milk in TBS for 2 h. Following incubation with the primary antibody overnight at 4° C. [rabbit anti-BAX 1:1000, rabbit anti-cleaved caspase-3 1:1000, mouse […] 1:1000, goat anti-MMP-9 1:1000 in TBS containing 0.1% (v/v) Tween 20] membranes were washed three times in TBS/Tween for 5 min and subsequently incubated for 120 min in TBS/Tween containing secondary peroxidase-conjugated antibody at room temperature (anti-rabbit 1:1000, anti-mouse 1:1000; anti-goat 1:1000 respectively). Signals were visualized by chemoluminescence (Pierce, Rockford, Ill., USA) and band intensities were quantified with NIH Image 1.62 software (Bethesda, Md., USA). Frozen brain sections were first blocked with 5% normal goat serum or normal horse serum in PBS and subsequently incubated with rabbit anti-Ki-67 antibody (1:200 dilution), mouse anti-CS-56 (1:100 dilution), goat anti-MMP-9 (1:100 dilution) or rabbit anti-cleaved caspase-3 antibody (1:200 dilution) at 4° C. overnight. Sections were washed extensively with PBS before incubation with secondary antibodies. Incubation was carried at room temperature for 1 h. After washing with PBS three times, stained slides were mounted with PBS/glycerol (1:1) and viewed under a fluorescent microscope (Leica, Germany).

[1] = Daily body weight in C6 rat glioma model; format: in vivo; conditions: daily weighing; vehicle group lost weight significantly at 17 d
Experimental: Before implantation, 85-90% confluent C6 cells were trypsinized, rinsed with DMEM+10% fetal calf serum, and centrifuged at 1000 rpm for 4 min. The cell pellet was resuspended in DMEM and placed on ice. Concentration of viable cells was adjusted to 1×10^5 cells/1 μl of DMEM. Each rat was anesthetized and placed in a stereotactic frame (David Kopf Instruments, Tujunga, Calif., USA), a hole was drilled at AP 0.0, R -3.0 relative to bregma according to the stereotaxic atlas of […], 1963). Tumor cells were injected at a rate of 0.5 μl/s, using a 2 μl Hamilton (#2701) syringe (Reno, Nev., USA) with a 26 s-gauge needle mounted on a stereotactic holder at a depth of 5 mm. […] For intracerebral administration of pio/vehicle (DMSO), the tip of an Alzet-brain-infusion-kit (Cupertino, Calif., USA) was placed in a depth of 5 mm, connected to a 2ML4 Alzet osmotic pump (Cupertino, Calif., USA). Drug administration began 4 h after surgery. […] The pumps were filled with 20 μM pio solved in PBS or vehicle (DMSO, 0.1% final concentration) solved in PBS. Animals were randomly distributed in two groups, treated with pio filled pumps (n=26) or vehicle filled pumps (n=26). Thereafter skull was cleaned and the incision sutured. […] Control animals received Purina chow without additions. Rats were allowed free access to the chow. Tumors were allowed to grow and animals were weighed daily. […]

Ki-67 = Ki-67 immunoreactivity and proliferation-index in vivo; set-up: species or system rat; conditions: 9, 14 and 21 days of pio treatment
Experimental: Frozen brain sections were first blocked with 5% normal goat serum or normal horse serum in PBS and subsequently incubated with rabbit anti-Ki-67 antibody (1:200 dilution), mouse anti-CS-56 (1:100 dilution), goat anti-MMP-9 (1:100 dilution) or rabbit anti-cleaved caspase-3 antibody (1:200 dilution) at 4° C. overnight. Sections were washed extensively with PBS before incubation with secondary antibodies. Incubation was carried at room temperature for 1 h. After washing with PBS three times, stained slides were mounted with PBS/glycerol (1:1) and viewed under a fluorescent microscope (Leica, Germany). For determination of the proliferation-index, Ki-67 positive cells in pio and vehicle treated cells and animals were counted, the percentage of Ki-67 positive cells in 1×10^3 tumor cells (P1 staining used in the in vitro experiments—not shown; DAPI stain used in the in vivo experiments) calculated and statistically compared. The percentage of cleaved caspase-3 positive cells was assessed by counting the immunopositive cells in 1×10^3 tumor (DAPI stain) cells and statistically compared.

## CCc1ccc(CCOc2ccc(CC3SC(=O)NC3=O)cc2)nc1 (stereo not drawn) [pioglitazone, 5-[4-[2-(5-ethylpyridin-2-yl)ethoxyl]benzyl]thiazolidine-2,4-dione]
C6 glioma tumor cells
  TUNEL staining: Increased TUNEL staining
MMP-9; tumor margins and surrounding healthy brain tissue
  MMP-9 positive staining (immunoreactivity): reduced MMP-9 positive staining
MMP-9; whole-hemisphere lysates
  MMP-9 expression (western blot): almost completely suppressed
  reduction of MMP-9 expression (densitometry): 81%
[1]
  weight loss: did not show any weight loss
Ki-67
  Ki-67 expression in vivo: significant reduction of Ki-67 expression
